Experimental data reported in patent US8629132B2, “Kinase inhibitors” (Genosco, priority 2009, dated 2014).

Columns and labels:
FLT3 = molecular target: T1, FLT3 (Homo sapiens, UniProt P36888); assay: Kinase inhibition assay: FLT3; type: biochemical
T1 construct: truncated human FAK, RET, FLT3, JAK2, and LRRK2; purchased Carna Biosciences
T1 sequence (P36888 564-993 limits assumed): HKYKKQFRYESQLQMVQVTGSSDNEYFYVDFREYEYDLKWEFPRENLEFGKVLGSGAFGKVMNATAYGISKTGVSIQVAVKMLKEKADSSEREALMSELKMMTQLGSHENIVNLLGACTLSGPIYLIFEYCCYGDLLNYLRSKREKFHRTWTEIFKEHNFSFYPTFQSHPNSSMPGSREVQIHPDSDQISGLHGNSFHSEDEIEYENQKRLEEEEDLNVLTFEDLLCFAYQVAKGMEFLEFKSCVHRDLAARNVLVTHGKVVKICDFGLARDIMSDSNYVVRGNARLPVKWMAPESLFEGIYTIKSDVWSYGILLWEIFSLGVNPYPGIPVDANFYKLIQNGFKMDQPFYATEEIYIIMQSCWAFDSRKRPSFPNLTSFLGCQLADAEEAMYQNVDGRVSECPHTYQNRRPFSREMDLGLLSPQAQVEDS

RET = molecular target: T2, RET (Homo sapiens, UniProt P07949); assay: Kinase inhibition assay: RET; type: biochemical
T2 construct: truncated human FAK, RET, FLT3, JAK2, and LRRK2; purchased Carna Biosciences
T2 sequence (P07949 658-1114 limits assumed): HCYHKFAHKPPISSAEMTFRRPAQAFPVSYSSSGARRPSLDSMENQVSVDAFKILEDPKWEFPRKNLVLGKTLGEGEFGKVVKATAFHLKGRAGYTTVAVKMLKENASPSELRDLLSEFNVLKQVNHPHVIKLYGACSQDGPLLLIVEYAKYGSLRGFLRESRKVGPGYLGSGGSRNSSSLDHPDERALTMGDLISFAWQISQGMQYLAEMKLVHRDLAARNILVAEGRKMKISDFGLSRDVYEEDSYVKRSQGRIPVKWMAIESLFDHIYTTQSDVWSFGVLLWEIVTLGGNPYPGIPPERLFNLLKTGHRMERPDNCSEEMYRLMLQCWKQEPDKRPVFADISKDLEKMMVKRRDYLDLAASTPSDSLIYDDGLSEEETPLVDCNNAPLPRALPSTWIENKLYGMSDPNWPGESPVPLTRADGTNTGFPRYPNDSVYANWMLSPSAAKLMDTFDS

PYK2 = molecular target: T3, PYK2 (Homo sapiens, UniProt Q14289); assay: Kinase inhibition assay: PYK2; type: biochemical; conditions: at 1 μM concentration
T3 construct: Purified full-length human SYK, ZAP70, PIM1, PYK2; purchased Carna Biosciences
Method: (§1) Compounds of the present invention were tested for their capacity to inhibit a kinase panel which includes, but are not limited to, spleen tyrosine kinase (SYK), zeta-chain-associated protein kinase 70 (ZAP70), PTK2B protein tyrosine kinase 2 (PYK2), focal adhesion kinase (FAK), provirus integration of maloney kinase 1 (PIM1), rearranged during transfection kinase (RET), Fms-like tyrosine kinase 3 (FLT3), Janus kinase 2 (JAK2), and leucine-rich repeat kinase 2 (LRRK2).
(§2) Inhibition of SYK, ZAP70, PYK2, FAK, PIM1, RET, FLT3, JAK2 and LRRK2 Kinase Activity
(§3) Compounds of the invention were initially diluted to 10 mM in 100% DMSO (CALBIOCHEM™) for storage and made into kinase buffer solution to create a compound concentration ranging from 1 uM and 10 uM. Serial dilutions of compounds of the invention were dispensed into a 96-well plate (GREINER BIOSCIENCES™) at 6 μL each. Purified full-length human SYK, ZAP70, PIM1, PYK2 and truncated human FAK, RET, FLT3, JAK2, and LRRK2 (CARNA BIOSCIENCES™) were diluted in kinase buffer and added to the compound solutions and pre-incubated for 30 minutes at room temperature (1 hour for PYK2). […] The reaction mixture was incubated for 1 hour (2 hours for PYK2). Following the incubation, the stop solution made with EDTA, water, and Lance detection buffer ([…]™) was added (12μL each) to stop phosphorylation. […] The IC50 value of test compound was calculated at Gradpad Prism 5 unless specified otherwise.

LRRK2 = molecular target: T4, LRRK2 (Homo sapiens, UniProt Q5S007); assay: Kinase inhibition assay: LRRK2; type: biochemical; conditions: at 1 μM concentration
T4 construct: truncated human FAK, RET, FLT3, JAK2, and LRRK2; purchased Carna Biosciences
Method: as §1, §2, §3

JAK2 = JAK2 (Homo sapiens, UniProt O60674); assay: In vitro kinase inhibition profile (Ambit Biosciences); type: binding; parameters: JAK2(JH1domain-catalytic); purchased Ambit Biosciences; conditions: reported as percent control, lower numbers indicate stronger activities
Method: Up to 518 different kinases have been identified in humans. To determine the scope of inhibitory effects of a representative compound of Formula (I) on known kinases, Compound 82 was tested against 104 commercially available kinases (Ambit Biosciences™). 104 kinases included ABL1(E255K)-phosphorylated, ABL1(T315I)-phosphorylated, ABL1-phosphorylated, ACVR1B, ADCK3, AKT1, AKT2, ALK, AURKA, AURKB, AXL, BMPR2, BRAF, BRAF(V600E), BTK, CDK11, CDK2, CDK3, CDK7, CDK9, CHEK1, CSF1R, CSNK1D, CSNK1G2, DCAMKL1, DYRK1B, EGFR, EGFR(L858R), EPHA2, ERBB2, ERBB4, ERK1, FAK, FGFR2, FGFR3, FLT1, FLT3, FLT4, GSK3B, IGF1R, IKK-α, IKK-β, INSR, JAK2(JH1domain-catalytic), JAK3 (JH1 domain-catalytic), JNK 1, JNK2, JNK3, KIT, KIT(D816V), KIT(V559D,T6701), LKB1, LRRK2, LRRK2(G2019S), MAP3K4, MAPKAPK2, MARKS, MEK1, MEK2, MET, MKNK1, MKNK2, MLK1, MTOR, p38-alpha, p38-beta, PAK1, PAK2, PAK-4, PCTK1, PDGFRA, PDGFRB, PDPK1, PIK3C2B, PIK3CA, PIK3CG, PIM1, PIM2, PIM3, PKAC-alpha, PLK1, PLK3, PLK4, PRKCE, PYK2, RAF1, RET, R10K2, ROCK2, RSK2, SNARK, SRC, SRPK3, SYK, TAK1, TGFBR1, TIE2, TRKA, TSSK1B, TYK2(JH1domain-catalytic), ULK2, VEGFR2, YANK3 and ZAP70.
Inhibition activity of Compound 82 was reported as percent control where lower numbers indicate stronger activities.

Sequence of JAK2 (O60674 849-1124 limits assumed): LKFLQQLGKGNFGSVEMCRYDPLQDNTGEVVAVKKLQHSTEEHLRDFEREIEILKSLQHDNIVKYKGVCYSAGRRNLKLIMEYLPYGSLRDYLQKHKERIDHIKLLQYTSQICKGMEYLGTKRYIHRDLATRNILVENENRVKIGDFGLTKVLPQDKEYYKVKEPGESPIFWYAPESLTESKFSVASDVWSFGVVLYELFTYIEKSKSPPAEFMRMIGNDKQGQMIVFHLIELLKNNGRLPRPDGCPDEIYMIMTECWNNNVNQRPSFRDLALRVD
T3 sequence (Q14289 whole entry): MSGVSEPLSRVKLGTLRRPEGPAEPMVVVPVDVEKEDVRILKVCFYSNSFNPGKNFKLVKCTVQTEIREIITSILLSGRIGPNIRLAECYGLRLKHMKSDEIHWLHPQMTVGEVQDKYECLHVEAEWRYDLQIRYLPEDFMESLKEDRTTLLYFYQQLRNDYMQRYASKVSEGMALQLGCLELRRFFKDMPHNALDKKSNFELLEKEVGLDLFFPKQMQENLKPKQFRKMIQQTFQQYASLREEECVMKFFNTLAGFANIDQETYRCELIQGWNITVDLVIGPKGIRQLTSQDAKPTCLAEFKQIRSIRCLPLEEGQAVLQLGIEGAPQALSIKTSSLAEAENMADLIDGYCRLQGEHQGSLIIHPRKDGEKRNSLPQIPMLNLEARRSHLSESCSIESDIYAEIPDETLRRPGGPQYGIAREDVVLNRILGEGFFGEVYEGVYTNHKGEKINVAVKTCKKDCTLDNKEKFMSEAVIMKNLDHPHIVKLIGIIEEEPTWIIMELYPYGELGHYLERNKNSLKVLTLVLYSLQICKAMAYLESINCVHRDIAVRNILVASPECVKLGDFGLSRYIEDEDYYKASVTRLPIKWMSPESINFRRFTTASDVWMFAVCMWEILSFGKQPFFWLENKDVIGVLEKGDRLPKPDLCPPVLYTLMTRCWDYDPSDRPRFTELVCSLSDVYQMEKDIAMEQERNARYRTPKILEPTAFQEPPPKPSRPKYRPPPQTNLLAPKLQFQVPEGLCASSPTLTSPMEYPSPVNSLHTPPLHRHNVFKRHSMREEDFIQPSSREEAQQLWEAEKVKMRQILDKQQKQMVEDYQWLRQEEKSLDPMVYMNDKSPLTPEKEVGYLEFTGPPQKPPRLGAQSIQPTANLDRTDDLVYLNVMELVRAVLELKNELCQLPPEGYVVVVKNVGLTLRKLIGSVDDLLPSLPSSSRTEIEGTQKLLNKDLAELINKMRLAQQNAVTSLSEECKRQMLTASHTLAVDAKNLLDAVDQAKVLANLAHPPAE
T4 sequence (Q5S007 970-2527 limits assumed): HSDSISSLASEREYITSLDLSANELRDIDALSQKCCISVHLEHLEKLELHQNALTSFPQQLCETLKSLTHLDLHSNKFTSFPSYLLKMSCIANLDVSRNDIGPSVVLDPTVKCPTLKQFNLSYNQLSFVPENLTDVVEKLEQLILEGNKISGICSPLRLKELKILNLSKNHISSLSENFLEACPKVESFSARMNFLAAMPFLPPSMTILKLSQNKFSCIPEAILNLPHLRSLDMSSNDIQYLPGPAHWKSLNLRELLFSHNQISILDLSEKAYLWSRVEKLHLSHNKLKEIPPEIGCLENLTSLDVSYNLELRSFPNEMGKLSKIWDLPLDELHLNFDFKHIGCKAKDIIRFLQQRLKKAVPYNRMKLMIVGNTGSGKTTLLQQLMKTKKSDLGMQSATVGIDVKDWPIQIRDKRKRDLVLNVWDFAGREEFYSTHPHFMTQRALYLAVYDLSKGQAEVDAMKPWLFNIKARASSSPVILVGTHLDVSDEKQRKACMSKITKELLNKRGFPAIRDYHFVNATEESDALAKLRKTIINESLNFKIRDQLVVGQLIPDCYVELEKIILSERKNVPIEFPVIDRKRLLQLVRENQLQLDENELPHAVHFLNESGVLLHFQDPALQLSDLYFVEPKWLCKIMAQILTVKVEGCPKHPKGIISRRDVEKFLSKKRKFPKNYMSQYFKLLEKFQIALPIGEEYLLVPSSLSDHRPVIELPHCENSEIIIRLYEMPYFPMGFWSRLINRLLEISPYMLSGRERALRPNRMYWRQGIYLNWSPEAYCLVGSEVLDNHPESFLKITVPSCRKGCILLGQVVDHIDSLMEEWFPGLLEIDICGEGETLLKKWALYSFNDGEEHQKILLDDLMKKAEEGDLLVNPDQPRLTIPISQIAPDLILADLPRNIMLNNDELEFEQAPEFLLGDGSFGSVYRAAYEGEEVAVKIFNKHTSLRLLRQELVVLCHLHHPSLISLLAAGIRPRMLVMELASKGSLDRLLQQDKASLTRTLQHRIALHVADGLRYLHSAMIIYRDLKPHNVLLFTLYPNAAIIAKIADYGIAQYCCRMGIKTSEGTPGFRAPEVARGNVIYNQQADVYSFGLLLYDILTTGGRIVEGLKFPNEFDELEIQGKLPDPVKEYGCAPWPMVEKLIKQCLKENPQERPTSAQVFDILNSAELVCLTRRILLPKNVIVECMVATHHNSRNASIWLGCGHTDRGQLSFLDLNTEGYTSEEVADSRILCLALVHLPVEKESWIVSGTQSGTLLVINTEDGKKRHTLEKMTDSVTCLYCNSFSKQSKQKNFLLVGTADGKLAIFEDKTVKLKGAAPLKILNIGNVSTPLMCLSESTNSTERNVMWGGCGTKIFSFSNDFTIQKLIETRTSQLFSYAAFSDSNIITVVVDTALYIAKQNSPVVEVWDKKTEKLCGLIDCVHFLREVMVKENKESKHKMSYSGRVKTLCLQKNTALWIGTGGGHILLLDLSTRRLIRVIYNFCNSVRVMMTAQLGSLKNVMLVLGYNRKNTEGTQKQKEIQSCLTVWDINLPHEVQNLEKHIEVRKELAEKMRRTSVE

Row | SMILES | IC50 (FLT3) | IC50 (RET) | inhibition at 1 µM (PYK2) | inhibition at 1 µM (LRRK2) | % of control (JAK2)
1 | COc1cc(Nc2ncc(C)c(-n3cc(C)c(CO)c3)n2)cc(OC)c1OC [Compound 21, (4-methyl-1-(5-methyl-2-(3,4,5-trimethoxyphenylamino)pyrimidin-4-yl)-1H-pyrrol-3-yl)methanol] | 1.9 nM | 50 nM | 78.2% | 93% | –
2 | Cc1cc(C)cc(Nc2ncc(F)c(-n3cc(C)c(CN4CC[C@@H](O)C4)c3)n2)c1 [Compound 82, (R)-1-((1-(2-(3,5-dimethylphenyl-amino)-5-fluoropyrimidin-4-yl)-4-methyl-1H-pyrrol-3-yl)methyl) pyrrolidin-3-ol] | – | – | – | – | 3%
